Columns and labels:
[1] = system: P. falciparum TM91C235 (multidrug-resistant); assay: In vitro chemosensitivity assay (pLDH), TM91C235 strain; type: cell-based; conditions: Plasmodium falciparum; 72 h incubation, pLDH method, mean of 3 experiments; read-out: P. falciparum IC50, TM91C235
P. falciparum D10 (CQ-S) = assay: Combination with dihydroartemisinin (isobologram), D10; type: cell-based; conditions: additive activity
Experimental: Figure 2 Isobologram analysis of the antimalarial activity of (−)-AM1 in combination with dihydroartemisinin (DHA) against D10 chloroquine-sensitive (CQ-S) (A) or W2 chloroquine-resistant (CQ-R) (B) P. falciparum strains. […]. DHA fractional IC50 values were calculated by dividing the IC50 of DHA combined with (−)-AM1 or CQ, respectively, by the IC50 of DHA alone, and plotted on the horizontal axis. The corresponding fractional (−)-AM1 or CQ IC50 values were calculated by dividing each fixed concentration by the IC50 of the (−)-AM1 or CQ alone, and plotted on the vertical axis. An isobologram close to the diagonal indicates an additive effect.
The antimalarial activity of (−)-AM1 was assayed in combination with dihydroartemisinin (DHA) against W-2 (CQ-R) or D10 (CQ-S) strains of P. falciparum by potentiation tests as previously described. CQ was used as a control. Isobolograms were constructed by plotting a pair of fractional IC50 values for each combination of (−)-AM1 or CQ with DHA [40].
An isobologram close to the diagonal indicates an additive effect.

P. berghei = assay: Prophylactic test, P. berghei/A. stephensi model; type: in vivo; conditions: 50 mg/kg per os for 4 days, infection by mosquito bites, days 5–9 post-infection
Experimental: (−)-AM1 was also tested in transmission-blocking and prophylactic studies using the P. berghei/A. stephensi model as described, with a few modifications.
For the prophylactic test, the experimental drugs were administered at 50 mg/kg per os for 4 consecutive days; 90 min after the last administration, mice were infected by 6–10 infective mosquito bites. Thick and thin Giemsa-stained smears were prepared and examined on days 5–10 post-infection to assess parasite density per μL of blood.

[2] = Microsome stability and metabolism studies, mouse; type: in vitro ADME; set-up: key: +: Metabolic Products Detected In Vitro and In Vivo; ND: Not detectable; conditions: (−)-AM1 1 μM, at 30 min
Experimental: (§1) Samples from the metabolic stability and metabolism studies were analyzed under the following conditions: UPLC interfaced with a Premiere XE triple Quadrupole Waters for stability studies, and Bruker Daltonics Ion Trap HCT Ultra for metabolic studies. A gradient from 2% to 100% (Water, MeOH, 5 mM Ammonium Acetate) over 2 min (stability) or 12 min (metabolism) in a C18 BEH (dimensions 1 by 50 mm for stability and 2.1 by 100 mm for metabolism, 1.7 µm column, 45 °C temperature, flow rate 0.5 mL/min) was used. For stability studies, the detection was performed in MRM (ESI positive, Q1/Q3 330.16/152.00, Cone Voltage 45 V; Extractor 5 V; Capillary 3.4 kV), while for metabolism studies, analysis was performed in Auto MS/MS mode (ESI positive; Capillary 109 V; Dry Temp 350 °C; Nebulizer 30 psi; Dry gas 10 L/min; HV capillary 500 V; Mass Accu time 500 µs; Mass range MS scan 100–600 amu, MS/MS 50–450 amu).
(§2) For stability and metabolism studies, test compounds were dissolved in DMSO, diluted at the final concentration of 1 µM, and pre-incubated in duplicate for 10 min at 37 °C in potassium phosphate buffer, pH 7.4, 3 mM MgCl2, with rat, mouse, and human hepatic microsomes (Xenotech Europe, Pfungstadt, Germany) at the final concentration of 0.5 mg/mL. The reaction was then started by adding the cofactor mixture of NADP, Glc6P, and G6P-DH, in the presence of UDPGA 1 mM in human microsomes to promote glucuronide formation. Acetonitrile (with verapamil as internal standard) was added to the samples at the times time 0 and 30 min to stop the reaction. Samples were then centrifuged and the supernatants analysed and quantified by LC-MS/MS. Reference compounds of known metabolic stability, 7-ethoxycoumarin (7-EC) and propranolol, were used as controls.
(§3) The percentage of the area of test compounds remaining after 30 min incubation was calculated in respect to the area of compounds at time = 0 min. […] Samples were re-analyzed by acquiring the daughter scan of the potential metabolites found during the full scan acquisition.

[3] = Microsome stability and metabolism studies, rat; type: in vitro ADME; set-up: key: +: Metabolic Products Detected In Vitro and In Vivo; ND: Not detectable; conditions: (−)-AM1 1 μM, at 30 min
Experimental: as §1, §2, §3

[4] = Metabolites in mouse plasma after oral treatment; type: in vivo; set-up: key: +: Metabolic Products Detected In Vitro and In Vivo; ND: Not detectable; conditions: after 50 mg/kg (−)-AM1 oral gavage, at 120 min
Experimental: A representative chromatogram in the mouse and the MS spectra are shown in Figure S1 (Supplementary Materials), while the proposed structures of metabolites in all the species, together with the retention times, are shown in Table 3. In the same table, the metabolites found in mouse plasma after 50 mg/kg oral treatment are included. The retention times and [M + H]^+ of the metabolites are the same for all three species.
The parent [M + H]^+ = 330 and the metabolites [M + H]^+ = 346 and [M + H]^+ = 344 were also detected in the mouse plasma samples collected after oral treatment of CD1 mice with 50 mg/kg of (−)-AM1 (Figure S4).
Samples from the metabolic stability and metabolism studies were analyzed under the following conditions: UPLC interfaced with a Premiere XE triple Quadrupole Waters for stability studies, and Bruker Daltonics Ion Trap HCT Ultra for metabolic studies. A gradient from 2% to 100% (Water, MeOH, 5 mM Ammonium Acetate) over 2 min (stability) or 12 min (metabolism) in a C18 BEH (dimensions 1 by 50 mm for stability and 2.1 by 100 mm for metabolism, 1.7 µm column, 45 °C temperature, flow rate 0.5 mL/min) was used. […]

[5] = Pharmacokinetics in CD-1 mice after oral administration; conditions: mouse, in vivo
CYP2C9 = CYP2C9 (Homo sapiens, UniProt P11712); assay: in vitro
Chain of CYP2C9 (P11712 whole entry): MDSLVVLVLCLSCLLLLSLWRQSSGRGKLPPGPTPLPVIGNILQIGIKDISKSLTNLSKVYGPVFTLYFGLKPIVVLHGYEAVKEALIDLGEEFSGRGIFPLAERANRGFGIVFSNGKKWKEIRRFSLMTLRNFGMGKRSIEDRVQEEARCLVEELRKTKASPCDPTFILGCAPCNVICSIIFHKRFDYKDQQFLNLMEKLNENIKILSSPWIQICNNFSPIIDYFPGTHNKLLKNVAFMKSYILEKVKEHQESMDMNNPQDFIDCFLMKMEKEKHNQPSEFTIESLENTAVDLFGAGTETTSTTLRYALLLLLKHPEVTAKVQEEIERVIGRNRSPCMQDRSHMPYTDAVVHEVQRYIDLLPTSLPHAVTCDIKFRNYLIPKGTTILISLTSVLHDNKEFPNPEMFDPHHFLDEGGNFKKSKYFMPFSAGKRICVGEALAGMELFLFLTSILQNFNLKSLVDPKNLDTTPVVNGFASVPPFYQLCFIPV

## Clc1ccc2c(NC[C@@H]3CCCN4CCCC[C@H]34)ccnc2c1 [(−)-AM1, 7-chloro-N-(((1S,9aR)-octahydro-1H-quinolizin-1-yl)methyl)quinolin-4-amine]
[1]
  IC50: 16.7 nM
P. falciparum D10 (CQ-S)
  FIC in combination with DHA: < 2
P. berghei
  parasitaemia versus control mice, prophylactic activity: no significant differences in parasitaemia
[2]
  Metabolic products detected, in vitro microsomes, mouse: +
[3]
  Metabolic products detected, in vitro microsomes, rat: +
[4]
  Metabolic products detected, in vivo plasma levels, mouse: +
[5]
  dose proportionality of oral pharmacokinetics: dose proportionality was displayed
CYP2C9
  inhibition at 3 µM: < 5%

— article PMC6149971, “In Vivo and In Vitro Activities and ADME-Tox Profile of a Quinolizidine-Modified 4-Aminoquinoline: A Potent Anti-P. falciparum and Anti-P. vivax Blood-Stage Antimalarial” (Molecules : A Journal of Synthetic Chemistry and Natural …, 2017)
